Reference: ChEMBL document CHEMBL1629445, “Synthesis and evaluation of azetidinone analogues of combretastatin A-4 as tubulin targeting agents” (J Med Chem, 2010)

Columns and labels:
[1] = tested on: MCF7; test: cells; conditions: Homo sapiens, MCF7, 72 h
[2] = Growth inhibition of human NCI60 cells; type: functional
[3] = tested on: MDA-MB-231; test: Antiproliferative activity against human MDA-MB-231 cells after 72 hrs by MTT assay; type: functional, cell-based; conditions: MDA-MB-231, 72 h
[4] = Cytotoxicity against in CD1 mouse mammary epithelial cells after 72 hrs by alamar blue dye assay; type: cell-based; conditions: CD1, Epithelial cell

SMILES | IC50 [1] [nM] | GI50 [2] [nM] | IC50 [3] [nM] | IC50 [4] [nM]
COc1ccc([C@H]2C(=O)N(c3ccccc3)[C@@H]2c2cc(OC)c(OC)c(OC)c2)cc1 | 37800 | – | – | –
COc1ccc([C@@H]2[C@@H](c3ccc(OCc4ccccc4)cc3)C(=O)N2c2cc(OC)c(OC)c(OC)c2)cc1 | 7990 | – | – | –
COc1ccc([C@@H]2[C@@H](c3ccc(F)cc3)C(=O)N2c2cc(OC)c(OC)c(OC)c2)cc1[N+](=O)[O-] | 1360 | – | – | –
COc1ccc([C@@H]2[C@@H](c3cc(OC)c(OC)c(OC)c3)C(=O)N2c2ccccc2)cc1 | 43100 | – | – | –
COc1ccc(N2C(=O)[C@H](c3ccccc3)[C@H]2c2cc(OC)c(OC)c(OC)c2)cc1 | 43100 | – | – | –
COc1ccc([C@@H]2[C@@H](c3ccccc3)C(=O)N2c2cc(OC)c(OC)c(OC)c2)cc1O | 9.6 | 24 | 28.8 | > 10000
COc1ccc([C@@H]2[C@@H](c3ccc(O)cc3)C(=O)N2c2cc(OC)c(OC)c(OC)c2)cc1 | 59.1 | – | 158 | –
COc1ccc([C@@H]2[C@@H](c3cc(OC)c(OC)c(OC)c3)C(=O)N2c2cc(OC)c(OC)c(OC)c2)cc1 | 7120 | – | – | –
COc1ccc([C@@H]2[C@@H](c3ccc(F)cc3)C(=O)N2c2cc(OC)c(OC)c(OC)c2)cc1 | 42.3 | – | 228 | –
COc1ccc([C@@H]2[C@@H](c3ccc(Cl)c(Cl)c3)C(=O)N2c2cc(OC)c(OC)c(OC)c2)cc1 | 3360 | – | – | –
COc1ccc([C@@H]2[C@@H](c3ccc(C(F)(F)F)cc3)C(=O)N2c2cc(OC)c(OC)c(OC)c2)cc1 | 1660 | – | – | –
COc1ccc([C@@H]2[C@@H](c3ccc(O)cc3)C(=O)N2c2cc(OC)c(OC)c(OC)c2)cc1O | 0.8 | – | 176 | > 10000
COc1ccc([C@@H]2[C@@H](c3ccc(F)cc3)C(=O)N2c2cc(OC)c(OC)c(OC)c2)cc1N | 55.3 | – | 80.8 | –
COc1ccc([C@@H]2[C@@H](c3ccc(N)cc3)C(=O)N2c2cc(OC)c(OC)c(OC)c2)cc1N | 30.9 | – | – | –
COc1ccc([C@@H](Nc2cc(OC)c(OC)c(OC)c2)[C@@H](CO)c2ccccc2)cc1O | 24600 | – | – | –
COC(=O)C(c1ccccc1)[C@H](Nc1cc(OC)c(OC)c(OC)c1)c1ccc(OC)c(O)c1 (some centres not stated) | > 100000 | – | – | –
COc1ccc(/C=C\c2cc(OC)c(OC)c(OC)c2)cc1O [COMBRETASTATIN A4] | 5.2 | – | 43 | > 10000

Further compounds by falling IC50 [1], results first:

IC50 [1] [nM] | SMILES | GI50 [2] [nM] | IC50 [3] [nM] | IC50 [4] [nM]
720 | COc1ccc([C@@H]2[C@@H](c3ccccc3)C(=S)N2c2cc(OC)c(OC)c(OC)c2)cc1 | – | – | –
700 | COc1ccc([C@@H]2[C@@H](c3ccccc3OC)C(=O)N2c2cc(OC)c(OC)c(OC)c2)cc1 | – | – | –
486 | COc1ccc([C@@H]2[C@@H](c3ccc([N+](=O)[O-])cc3)C(=O)N2c2cc(OC)c(OC)c(OC)c2)cc1 | – | – | –
466 | COc1ccc([C@@H]2[C@@H](c3ccccc3)C(=O)N2c2cc(OC)c(OC)c(OC)c2)cc1[N+](=O)[O-] | – | – | –
448 | COc1ccc([C@@H]2[C@@H](c3ccc(SC)cc3)C(=O)N2c2cc(OC)c(OC)c(OC)c2)cc1 | – | – | –
420 | COc1ccc([C@@H]2[C@@H](c3ccc(Br)cc3)C(=O)N2c2cc(OC)c(OC)c(OC)c2)cc1 | – | – | –
326 | COc1ccc([C@@H]2[C@@H](c3cccc(OC)c3)C(=O)N2c2cc(OC)c(OC)c(OC)c2)cc1 | – | – | –
315 | COc1ccc([C@@H]2[C@@H](c3ccc(C)cc3)C(=O)N2c2cc(OC)c(OC)c(OC)c2)cc1 | – | – | –
314 | COc1ccc([C@@H]2[C@@H](c3ccc(F)c(F)c3)C(=O)N2c2cc(OC)c(OC)c(OC)c2)cc1 | – | – | –
305 | COc1ccc([C@@H]2[C@@H](c3ccc(Cl)cc3)C(=O)N2c2cc(OC)c(OC)c(OC)c2)cc1 | – | – | –
223 | COc1ccc([C@@H]2[C@@H](c3ccc(OC)c(OC)c3)C(=O)N2c2cc(OC)c(OC)c(OC)c2)cc1 | – | – | –
182 | COc1ccc([C@H]2C(=O)N(c3cc(OC)c(OC)c(OC)c3)[C@@H]2c2ccc(OC)cc2)cc1 | 210 | – | –
68.9 | COc1ccc([C@@H]2[C@@H](c3cccc(O)c3)C(=O)N2c2cc(OC)c(OC)c(OC)c2)cc1 | – | – | –
65.7 | COc1ccc([C@@H]2[C@@H](c3ccc(F)cc3)C(=O)N2c2cc(OC)c(OC)c(OC)c2)cc1O | – | 107 | –
65.3 | COc1ccc([C@@H]2[C@@H](c3ccccc3)C(=O)N2c2cc(OC)c(OC)c(OC)c2)cc1N | – | 429 | –
50.8 | COc1ccc([C@@H]2[C@@H](c3ccc(N)cc3)C(=O)N2c2cc(OC)c(OC)c(OC)c2)cc1 | – | 224 | –
39.5 | COc1ccc([C@@H]2[C@@H](c3ccc(O)cc3)C(=O)N2c2cc(OC)c(OC)c(OC)c2)cc1N | – | 1680 | –
34.4 | COc1ccc([C@@H]2[C@@H](c3ccccc3)C(=O)N2c2cc(OC)c(OC)c(OC)c2)cc1 | – | 78.2 | –
4.5 | COc1ccc([C@@H]2[C@@H](c3ccc(N)cc3)C(=O)N2c2cc(OC)c(OC)c(OC)c2)cc1O | – | – | –
